Test results reported in article PMC7653338 (Beilstein Journal of Organic Chemistry, 2020).
“Also recorded” adds a separate entry of the source. Residues, ends and D or L forms follow the SMILES beside them. *: point of attachment. X1 = O=C(Cc1ccc2ccccc2c1)N[C@H](Cc1ccccc1)C(=O)N[C@H](Cc1ccccc1)C(=O)N[C@H](CCCCN*)C(=O)N[C@H](Cc1ccc(O)cc1)C(=O)O

Experiments:
Saos-2 cells = assay: MTT cell viability assay, Saos-2 cells; type: cell-based; settings: 400 μM, three days, absorbance 595 nm, three independent experiments
Description: (§1) We investigated the cell compatibility of 1 and 2 by incubation with two kinds of mammalian cells, HeLa and Saos-2 cells, using the 3-(4,5-dimethylthiazol-2-yl)-2,5-diphenyl tetrazolium bromide (MTT) assay. The cell viability of HeLa and Soas-2 cells after being incubated with 1 (400 μM) for three days are about 90% and 80%, respectively. […] To confirm that 1 and 2 convert from micelles to nanofibers in a cellular environment, we incubated of 1 or 2 at 500 μM in the lysates of HeLa cells (Figure S5, Supporting Information File 1) and examined the amount of each component in % by LC–MS. After 24 h incubation, 44% of 1 or 39% of 2, was cleaved to Nap-ffky, which self-assembles as part for the nanofibers. […] Then, we used confocal laser scanning microscopy (CLSM) to examine whether these compounds deliver RPE into HeLa cells. […]
(§2) Circular dichroism (CD) analysis : CD spectra were recorded ([…]) using a JASCO 810 spectrometer under a nitrogen atmosphere. […] The percentage of the secondary structures in different samples was calculated by the programs provided in DichroWeb. […]
(§3) reaction and to dissolve the purple formazan. After incubation of the cells at 37 ° C overnight, the absorbance of each well at 595 nm was measured in a multimode microplate reader. […]

proteinase K [1] = biological target: proteinase K (Parengyodontium album, UniProt P06873); assay: Enzymatic proteolysis catalyzed by proteinase K, LC-MS; type: in vitro ADME; settings: for proteolytic products with proteinase K: 5 mM peptide, proteinase K 5 U/mL, Tris-HCl buffer pH 7.0, 24 h, LC-MS
Chain of proteinase K (Parengyodontium album, UniProt P06873) (P06873 106-384, species assumed): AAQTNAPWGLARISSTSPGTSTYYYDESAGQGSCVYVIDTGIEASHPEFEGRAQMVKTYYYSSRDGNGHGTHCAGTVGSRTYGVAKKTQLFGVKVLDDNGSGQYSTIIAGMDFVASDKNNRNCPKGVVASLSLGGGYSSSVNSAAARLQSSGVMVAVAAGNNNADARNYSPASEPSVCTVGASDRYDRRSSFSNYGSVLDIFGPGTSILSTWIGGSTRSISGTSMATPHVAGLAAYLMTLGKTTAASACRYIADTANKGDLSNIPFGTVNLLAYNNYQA
Description: After having obtained the peptides 1 and 2, we examined the enzymatic proteolysis of 1 and 2 catalyzed by proteinase K. We added proteinase K, a powerful endopeptidase, to the solutions of 1 and 2 (5 mM, pH 7.0, in Tris-HCl buffer). […] Then, we conducted a time-dependent CD analysis to examine the change of the secondary structural conformations of 1 and 2 during the proteolysis catalyzed by proteinase K in Tris-HCl buffer at pH 7.0. […] During the transition from micelles to fibrils, the CD signal at 210 nm reverses the sign, likely due to the self-assembly of Nap-ffky to helical fibrils. Analyzing the CD spectra by the Contin-LL analysis program, we estimated the percentage of each conformation, further confirming the trend and the assignment of the dominant conformation. As shown in Figure 2C and Figure 2F, the initial state of peptide 1 has more β-strand conformations than that of peptide 2. With increasing proteolysis time, the CD spectra indicate that the cleavage of 1 or 2 results in more assemblies that favor β-strand conformations (Figure 2D and Figure 2E). In addition, the ratio of the β-strand conformation resulted from the cleavage of 1 being slightly faster than that of 2.
Figure 2 A) LC–MS spectrum of the proteolytic products after 1 (5 mM) was incubated with proteinase K (5 U/mL) for 24 h. B) Time-dependent circular dichroism (CD) spectra of 1 incubated with proteinase K in Tris-HCl buffer at pH 7.0. C) CD simulation of the mixture from the spectra in B. D) LC–MS spectrum of the proteolytic products after 2 (5 mM) was incubated with proteinase K (5 U/mL) for 24 h. E) Time-dependent CD spectra of 2 incubated with proteinase K in Tris-HCl buffer at pH 7.0. F) CD simulation of the mixture from the spectra in E.

HeLa cells = assay: MTT cell viability assay, HeLa cells; type: cell-based; settings: 400 μM, three days, absorbance 595 nm, three independent experiments
Description: as §1, §2, §3

[2] = type: in vitro ADME; settings: 500 μM peptide in HeLa cell lysate, 24 h, 37 °C, lysis buffer pH 7.4, LC-MS
Description: as §1, with “cells. After mixing R-phycoerythrin (RPE), a red fluorescent protein, with 1 or 2 at different concentrations, we incubated the mixtures with HeLa cells for 2 h and 4 h.” for “cells.”
reaction and to dissolve the purple formazan. After incubation of the cells at 37 ° C overnight, the absorbance of each well at 595 nm was measured in a multimode microplate reader. Three independent experiments were performed, with an average ± […]
Confocal microscopy: Cells in the exponential growth phase were seeded in a glass-bottomed culture chamber at 1 × 10^5 cells/well. […]

enterokinase (ENTK) [3] = biological target: enterokinase (ENTK) (Homo sapiens, UniProt P98073); assay: Proteolysis by enterokinase (ENTK); type: in vitro ADME; settings: Figures S3 and S4
Chain of enterokinase (ENTK) (Homo sapiens, UniProt P98073) (P98073 whole entry, species assumed): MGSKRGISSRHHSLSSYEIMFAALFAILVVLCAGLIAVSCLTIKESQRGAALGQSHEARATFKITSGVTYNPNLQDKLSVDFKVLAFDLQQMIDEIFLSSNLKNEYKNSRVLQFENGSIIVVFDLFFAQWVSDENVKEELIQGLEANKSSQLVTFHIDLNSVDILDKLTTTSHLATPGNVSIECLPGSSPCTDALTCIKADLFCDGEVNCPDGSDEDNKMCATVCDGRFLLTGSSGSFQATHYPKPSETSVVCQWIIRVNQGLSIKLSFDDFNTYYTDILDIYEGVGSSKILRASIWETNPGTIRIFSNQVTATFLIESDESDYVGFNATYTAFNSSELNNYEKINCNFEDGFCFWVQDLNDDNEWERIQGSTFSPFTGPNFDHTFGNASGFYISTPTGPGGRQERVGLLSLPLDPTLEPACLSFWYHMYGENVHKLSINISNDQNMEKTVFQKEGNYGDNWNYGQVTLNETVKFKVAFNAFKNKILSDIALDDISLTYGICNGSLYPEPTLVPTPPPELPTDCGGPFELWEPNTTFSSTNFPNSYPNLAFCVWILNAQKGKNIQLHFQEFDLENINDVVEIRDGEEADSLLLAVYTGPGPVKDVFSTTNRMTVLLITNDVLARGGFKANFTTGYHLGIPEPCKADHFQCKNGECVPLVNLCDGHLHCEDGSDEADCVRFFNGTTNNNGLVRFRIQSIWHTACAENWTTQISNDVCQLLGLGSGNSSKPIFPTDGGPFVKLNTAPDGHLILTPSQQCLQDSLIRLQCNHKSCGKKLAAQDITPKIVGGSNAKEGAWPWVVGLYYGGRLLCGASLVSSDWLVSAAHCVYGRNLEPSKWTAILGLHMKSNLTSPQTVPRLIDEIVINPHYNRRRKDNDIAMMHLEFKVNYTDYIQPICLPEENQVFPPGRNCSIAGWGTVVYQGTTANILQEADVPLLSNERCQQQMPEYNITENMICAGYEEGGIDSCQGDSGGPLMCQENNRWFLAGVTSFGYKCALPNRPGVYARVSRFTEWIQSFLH
From the text: In addition, unlike the FLAG-tag-based branched peptides, 1 and 2 are proteolytic-resistant to enterokinase (ENTK, Figures S3 and S4, Supporting Information File 1).

proteinase K [4] = assay: proteinase K (5 U/mL) in Tris-HCl buffer, pH 7.0; settings: up to 24 h
enterokinase (ENTK) [5] = assay: enterokinase (ENTK)
[6] = lysates of HeLa cells, in 10 mmol of lysis buffer at pH 7.4; settings: 37 °C, up to 24 h

Compound	cell viability (Saos-2 cells) [%]	proteolytic products with proteinase K (proteinase K [1])	cell viability (HeLa cells)	amount cleaved to Nap-ffky [2] [%]	resistance to proteolysis by enterokinase (enterokinase (ENTK) [3])	stability towards the proteolysis (acetylated versus non-acetylated branch) (proteinase K [1]; proteinase K, compared with 1)	fragment found (proteinase K [4])	not cleaved (enterokinase (ENTK) [5])	fragment found [6]
CC[C@H](C)[C@H](NC(=O)[C@H](CC(C)C)NC(=O)[C@H](CC(C)C)NC(=O)[C@H](CC(=O)O)NC(=O)[C@H](CC(=O)O)NC(=O)[C@H](CC(=O)O)NC(=O)[C@H](CCC(=O)O)NC(=O)[C@@H](N)CC(=O)O)C(=O)NCC(=O)NCCCC[C@@H](NC(=O)[C@@H](Cc1ccccc1)NC(=O)[C@@H](Cc1ccccc1)NC(=O)Cc1ccc2ccccc2c1)C(=O)N[C@H](Cc1ccc(O)cc1)C(=O)O [compound 1, Nap-ffk(NH2-DEDDDLLIG)y] (H-DEDDDLLIG-X1)	~80	undergoes proteolytic cleavage to form DEDDDLLIG and Nap-ffky	about 90%	44	proteolytic-resistant				
CC[C@H](C)[C@H](NC(=O)[C@H](CC(C)C)NC(=O)[C@H](CC(C)C)NC(=O)[C@H](CC(=O)O)NC(=O)[C@H](CC(=O)O)NC(=O)[C@H](CC(=O)O)NC(=O)[C@H](CCC(=O)O)NC(=O)[C@H](CC(=O)O)NC(C)=O)C(=O)NCC(=O)NCCCC[C@@H](NC(=O)[C@@H](Cc1ccccc1)NC(=O)[C@@H](Cc1ccccc1)NC(=O)Cc1ccc2ccccc2c1)C(=O)N[C@H](Cc1ccc(O)cc1)C(=O)O [compound 2, Nap-ffk(AcNH-DEDDDLLIG)y] (Ac-DEDDDLLIG-X1)		proteolytically hydrolyzes into four parts, including DEDDDLLIG, DEDDDLL, DEDDDL, and Nap-ffky		39	proteolytic-resistant	enhanced stability towards the proteolysis			
Nap-ffk(AcNH-DEDDDLLIG)y							Nap-ffky, 24 h	proteolytic-resistant to enterokinase	Nap-ffky, 24 h
Nap-ffk(NH2-DEDDDLLIG)y							DEDDDLLIG, 24 h; also recorded: Nap-ffky, 24 h	proteolytic-resistant to enterokinase	Nap-ffky, 24 h
